This note sets out measurements from patent publication US9999619B2, “Piperidin-4-yl azetidine derivatives as JAK1 inhibitors” (Incyte Corporation, priority 2010, dated 2018).

Format in all cases: biochemical
For test [1], the target named is human JAK1 (a.a. 837-1142) (Homo sapiens, UniProt P23458). Briefly: In vitro JAK kinase assay (HTRF, phosphorylation of a biotinylated peptide), JAK1. The settings on record: measured at 1 mM ATP. A digest of the protocol:
(§1)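 N-terminal His-tagged catalytic domains, baculovirus-expressed in insect cells, phosphorylated a biotinylated peptide for 1 hr at room temperature. EDTA stop was followed by SA-APC and Eu-Py20 antibody for 40 minutes, with phosphopeptide read by HTRF.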

Test [2] addresses human JAK1 (a.a. 837-1142). Described as above. The settings on record: ratio of JAK2 IC50 to JAK1 IC50, measured at 1 mM ATP. A digest of the protocol: as §1
The target in test [3] is Jak2 (a.a. 828-1132) (Homo sapiens (Human), UniProt O60674). Briefly: In vitro JAK kinase assay (HTRF, phosphorylation of a biotinylated peptide), JAK2. The settings on record: measured at 1 mM ATP. The method in brief: as §1
Chain of Jak2 (a.a. 828-1132) (O60674 828-1132): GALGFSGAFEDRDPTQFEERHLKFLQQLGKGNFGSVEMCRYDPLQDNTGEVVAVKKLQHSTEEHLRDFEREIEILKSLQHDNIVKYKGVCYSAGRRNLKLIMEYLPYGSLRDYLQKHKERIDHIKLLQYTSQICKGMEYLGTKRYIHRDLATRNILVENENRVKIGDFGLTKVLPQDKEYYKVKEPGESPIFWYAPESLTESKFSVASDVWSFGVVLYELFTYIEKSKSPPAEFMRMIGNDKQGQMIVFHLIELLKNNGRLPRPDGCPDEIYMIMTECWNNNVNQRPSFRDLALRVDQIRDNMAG

For the compound `N#CCC1(n2cc(-c3ncnc4[nH]ccc34)cn2)CN(C2CCN(C(=O)c3ccc(-c4cccc5cnccc45)c(F)c3)CC2)C1` [Example 130, {1-[1-(3-fluoro-4-isoquinolin-5-ylbenzoyl)piperidin-4-yl]-3-[4-(7H-pyrrolo[2,3-d]pyrimidin-4-yl)-1H-pyrazol-1-yl]azetidin-3-yl}acetonitrile], the half-maximal inhibitory concentration (IC50) in test [1] is at most 5 nM; in test [3], at most 10 nM. In addition, in test [2], the “IC50 Ratio JAK2/JAK1” value amounted to 7.1.
For the compound `N#CCC1(n2cc(-c3ncnc4[nH]ccc34)cn2)CN(C2CCN(C(=O)c3ccc(-c4cccc5ccncc45)c(F)c3)CC2)C1` [Example 131, {1-[1-(3-fluoro-4-isoquinolin-8-ylbenzoyl)piperidin-4-yl]-3-[4-(7H-pyrrolo[2,3-d]pyrimidin-4-yl)-1H-pyrazol-1-yl]azetidin-3-yl}acetonitrile], the 50% inhibitory concentration (IC50) in test [1] is at most 5 nM; in test [3], 10 to 50 nM. Also, the “IC50 Ratio JAK2/JAK1” value in test [2] worked out at 8.1.
The like results for `N#CCC1(n2cc(-c3ncnc4[nH]ccc34)cn2)CN(C2CCN(C(=O)c3ccc(-c4ccc5ccncc5c4)c(F)c3)CC2)C1` [Example 133, {1-[1-(3-fluoro-4-isoquinolin-7-ylbenzoyl)piperidin-4-yl]-3-[4-(7H-pyrrolo[2,3-d]pyrimidin-4-yl)-1H-pyrazol-1-yl]azetidin-3-yl}acetonitrile] were, in that order, at most 5 nM, 10 to 50 nM and 7.9.
On to `N#CCC1(n2cc(-c3ncnc4[nH]ccc34)cn2)CN(C2CCN(C(=O)c3ccc(-c4ccc5cccnc5c4)c(F)c3)CC2)C1` [Example 134, {1-[1-(3-fluoro-4-quinolin-7-ylbenzoyl)piperidin-4-yl]-3-[4-(7H-pyrrolo[2,3-d]pyrimidin-4-yl)-1H-pyrazol-1-yl]azetidin-3-yl}acetonitrile], for which the 50% inhibitory concentration (IC50) in test [1] was at most 5 nM; in test [3] it was 10 to 50 nM. The “IC50 Ratio JAK2/JAK1” value in test [2] is recorded as 6.7.
For `N#CCC1(n2cc(-c3ncnc4[nH]ccc34)cn2)CN(C2CCN(C(=O)c3ccc(-c4ccc5nccn5c4)c(F)c3)CC2)C1` [Example 135, {1-[1-(3-fluoro-4-imidazo[1,2-a]pyridin-6-ylbenzoyl)piperidin-4-yl]-3-[4-(7H-pyrrolo[2,3-d]pyrimidin-4-yl)-1H-pyrazol-1-yl]azetidin-3-yl}acetonitrile], in that order: at most 5 nM, 10 to 50 nM and 7.1.
The like results for `N#CCC1(n2cc(-c3ncnc4[nH]ccc34)cn2)CN(C2CCN(C(=O)c3ccc(-c4nc5ccccc5o4)cc3)CC2)C1` [Example 136, {1-{1-[4-(1,3-benzoxazol-2-yl)benzoyl]piperidin-4-yl}-3-[4-(7H-pyrrolo[2,3-d]pyrimidin-4-yl)-1H-pyrazol-1-yl]azetidin-3-yl}acetonitrile] were, in that order, 5 to 20 nM, above 100 nM and 5.6.
For `N#CCC1(n2cc(-c3ncnc4[nH]ccc34)cn2)CN(C2CCN(C(=O)c3ccc(-c4nc5ccccc5o4)c(F)c3)CC2)C1` [Example 137, {1-{1-[4-(1,3-benzoxazol-2-yl)-3-fluorobenzoyl]piperidin-4-yl}-3-[4-(7H-pyrrolo[2,3-d]pyrimidin-4-yl)-1H-pyrazol-1-yl]azetidin-3-y4}acetonitrile], in that order: 20 to 30 nM, above 100 nM and 6.0.
With `N#CCC1(n2cc(-c3ncnc4[nH]ccc34)cn2)CN(C2CC3CCC(C2)N3C(=O)c2cc(F)cc(C#N)c2)C1` (stereo not drawn) [Example 138, 3-[(3-{3-(Cyanomethyl)-3-[4-(7H-pyrrolo[2,3-d]pyrimidin-4-yl)-1H-pyrazol-1-yl]azetidin-1-yl}-8-azabicyclo[3.2.1]oct-8-yl)carbonyl]-5-fluorobenzonitrile], the IC50 in test [1] is at most 5 nM; in test [3] it was at most 10 nM. Moreover, the “IC50 Ratio JAK2/JAK1” value in test [2] is on record as 13.9.
In the case of `N#CCC1(n2cc(-c3ncnc4[nH]ccc34)cn2)CN(C2CC3CCC(C2)N3C(=O)c2ccc(F)c(F)c2)C1` (stereo not drawn) [Example 139, {1-[8-(3,4-difluorobenzoyl)-8-azabicyclo[3.2.1]oct-3-yl]-3-[4-(7H-pyrrolo[2,3-d]pyrimidin-4-yl)-1H-pyrazol-1-yl]azetidin-3-yl}acetonitrile], the 50% inhibitory concentration (IC50) is at most 5 nM in test [1] and at most 10 nM in test [3]. Moreover, the “IC50 Ratio JAK2/JAK1” value in test [2] was 4.4.
Turning to `N#CCC1(n2cc(-c3ncnc4[nH]ccc34)cn2)CN(C2CC3CCC(C2)N3C(=O)c2ccc(C#N)c(F)c2)C1` (stereo not drawn) [Example 140, 4-[(3-{3-(cyanomethyl)-3-[4-(7H-pyrrolo[2,3-d]pyrimidin-4-yl)-1H-pyrazol-1-yl]azetidin-1-yl}-8-azabicyclo[3.2.1]oct-8-yl)carbonyl]-2-fluorobenzonitrile], the results for the IC50 in test [1] and in test [3] were 5 to 20 nM and 10 to 50 nM, respectively. Also, the “IC50 Ratio JAK2/JAK1” value in test [2] is reported as 5.4.
Turning to `N#CCC1(n2cc(-c3ncnc4[nH]ccc34)cn2)CN(C2CC3CCC(C2)N3C(=O)c2ccc(Cl)c(F)c2)C1` (stereo not drawn) [Example 141, {1-[8-(4-chloro-3-fluorobenzoyl)-8-azabicyclo[3.2.1]oct-3-yl]-3-[4-(7H-pyrrolo[2,3-d]pyrimidin-4-yl)-1H-pyrazol-1-yl]azetidin-3-yl}acetonitrile], the IC50 is at most 5 nM in test [1] and at most 10 nM in test [3]. Moreover, the “IC50 Ratio JAK2/JAK1” value in test [2] is listed as 6.2.
Turning to `N#CCC1(n2cc(-c3ncnc4[nH]ccc34)cn2)CN(C2CC3CCC(C2)N3C(=O)c2ccnc(C(F)(F)F)c2F)C1` (stereo not drawn) [Example 142, {1-{8-[3-fluoro-2-(trifluoromethyl)isonicotinoyl]-8-azabicyclo[3.2.1]oct-3-yl}-3-[4-(7H-pyrrolo[2,3-d]pyrimidin-4-yl)-1H-pyrazol-1-yl]azetidin-3-yl}acetonitrile], the values for the IC50 in test [1] and in test [3] were at most 5 nM and at most 10 nM, respectively. Also, the “IC50 Ratio JAK2/JAK1” value in test [2] was found to be 7.4.
`N#CCC1(n2cc(-c3ncnc4[nH]ccc34)cn2)CN(C2CC3CCC(C2)N3C(=O)c2ccc(C(F)(F)F)nc2)C1` (stereo not drawn) [Example 143, [3-[4-(7H-pyrrolo[2,3-d]pyrimidin-4-yl)-1H-pyrazol-1-yl]-1-(8-{[6-(trifluoromethyl)pyridin-3-yl]carbonyl}-8-azabicyclo[3.2.1]oct-3-yl)azetidin-3-yl]acetonitrile]: the concentration for half-maximal inhibition (IC50) in test [1] fell in the range of 5 to 20 nM; in test [3], 10 to 50 nM. Further, the “IC50 Ratio JAK2/JAK1” value in test [2] amounted to 3.5.
With `CC1CC(N2CC(CC#N)(n3cc(-c4ncnc5[nH]ccc45)cn3)C2)CCN1C(=O)C1CCC(F)(F)CC1` (stereo not drawn) [Example 151, {1-{1-[(4,4-difluorocyclohexyl)carbonyl]-2-methylpiperidin-4-yl}-3-[4-(7H-pyrrolo[2,3-d]pyrimidin-4-yl)-1H-pyrazol-1-yl]azetidin-3-yl}acetonitrile], the IC50 was 5 to 20 nM in test [1] and 50 to 100 nM in test [3]. The “IC50 Ratio JAK2/JAK1” value in test [2] came out at 5.8.
In the case of `CC1(N2CC(CC#N)(n3cc(-c4ncnc5[nH]ccc45)cn3)C2)CCN(C(=O)c2cccc(F)c2)CC1` [Example 152, {1-[1-(3-Fluorobenzoyl)-4-methylpiperidin-4-yl]-3-[4-(7H-pyrrolo[2,3-d]pyrimidin-4-yl)-1H-pyrazol-1-yl]azetidin-3-yl}acetonitrile], the concentration for half-maximal inhibition (IC50) in test [1] lay within 5 to 20 nM; in test [3] it was 10 to 50 nM. In addition, in test [2], the “IC50 Ratio JAK2/JAK1” value stood at 4.0.

Broadly, the IC50 is the concentration that gives 50% inhibition. Read a high IC50 as a need for much substance.
